According to patent publication US20260053792A1, “POLYSUBSTITUTED TETRAHYDROISOQUINOLINE COMPOUNDS, METHOD FOR PREPARING SAME, PHARMACEUTICAL COMPOSITION THEREOF, AND USE THEREOF” (SHANGHAI INSTITUTE OF MATERIA MEDICA, CHINESE ACADEMY OF …, priority 2022, published 2026):
Like-named read-outs stand apart in the source and are kept apart here.

Assay: Tissue distribution of compound A26 in mice (plasma / cerebrospinal fluid drug concentration)
Type: in vivo
Settings: for Kp at 0.25 h / Kp at 0.5 h / concentration at 15 min / concentration at 30 min: mouse; for Kp at 0.25 h / Kp at 0.5 h: brain/plasma, read-out: Brain to plasma drug concentration ratio (Cbrain/Cplasma); for Kp at 0.25 h / concentration at 15 min: 15 min; for Kp at 0.5 h / concentration at 30 min: 30 min
Experimental: The drug concentrations in plasma or cerebrospinal fluid at two time points of 15 minutes and 30 minutes under three administration routes: oral (20 mg/kg), intraperitoneal injection (10 mg/kg), and intravenous injection (5 mg/kg) were measured.

[1] = cerebrospinal fluid, IP 10 mg/kg, read-out: cerebrospinal fluid
[2] = cerebrospinal fluid, IV 5 mg/kg, read-out: cerebrospinal fluid
[3] = cerebrospinal fluid, PO 20 mg/kg, read-out: cerebrospinal fluid
[4] = plasma, IP 10 mg/kg, read-out: Cardiac plasma
[5] = plasma, IV 5 mg/kg, read-out: Cardiac plasma
[6] = plasma, PO 20 mg/kg, read-out: Cardiac plasma

Compound: COc1cc2c(cc1OC)C(CCc1c[nH]c3ccccc13)N(CC1CCOCC1)CC2 (stereo not shown) [Compound A26, 1-(2-(1H-indol-3-yl)ethyl)-6,7-dimethoxy-2-((tetrahydro-2H-pyran-4-yl)methyl)-1,2,3,4-tetrahydroisoquinoline]
- blood-brain barrier penetration ability and brain targeting property (conclusion from brain/plasma ratios): good
- Kp at 0.25 h (IP 10 mg/kg): 2.12
- Kp at 0.5 h (IP 10 mg/kg): 1.91
- Kp at 0.25 h (IV 5 mg/kg): 3.3
- Kp at 0.5 h (IV 5 mg/kg): 2.2
- Kp at 0.25 h (PO 20 mg/kg): 3.4
- Kp at 0.5 h (PO 20 mg/kg): 1.6
- concentration at 15 min [1]: 665 ± 49 ng/g
- concentration at 30 min [1]: 355 ± 106 ng/g
- concentration at 15 min [2]: 1560 ± 245 ng/g
- concentration at 30 min [2]: 292 ± 69 ng/g
- concentration at 15 min [3]: 224 ± 363 ng/g
- concentration at 30 min [3]: 32.4 ± 11.9 ng/g
- concentration at 15 min [4]: 313 ± 15 ng/mL
- concentration at 30 min [4]: 186 ± 57 ng/mL
- concentration at 15 min [5]: 466 ± 85 ng/mL
- concentration at 30 min [5]: 135 ± 47 ng/mL
- concentration at 15 min [6]: 65.3 ± 94.7 ng/mL
- concentration at 30 min [6]: 20.7 ± 6.1 ng/mL
